Results published in ChEMBL document CHEMBL1158904, “New metabolites from the sponge Spongia agaricina” (J Nat Prod, 1998).
≈ marks a conversion by molar mass, not a printed value.

What was measured:
Format in all cases: functional, cell-based
P388 = assay: Cytotoxicity against mouse P388 cells
HT-29 = assay: Cytotoxicity against human HT-29 cells
A549 = assay: Cytotoxicity against human A549 cells
SK-MEL-28 = assay: Cytotoxicity against human SK-MEL-28 cells

Row | Structure (SMILES) | IC50 (P388) [µg/mL] | IC50 (HT-29) [µg/mL] | IC50 (A549) [µg/mL] | IC50 (SK-MEL-28) [µg/mL]
1 | C=C(CC[C@@H](C)[C@H]1CC[C@@H](C2=C[C@@H]3O[C@@]34C[C@@H](O)CC[C@]4(C)C2=O)[C@]1(C)CC=O)C(C)C | 1 (≈ 2.26 µM) | 1 (≈ 2.26 µM) | 1 (≈ 2.26 µM) | 1 (≈ 2.26 µM)
2 | CC(=O)O[C@@H]1C[C@H]2[C@]3(C)CC[C@H]4C(C)(C)CCC[C@]4(C)[C@H]3C[C@@H](O)[C@]2(C)c2occc21 | 1 (≈ 2.33 µM) | 1 (≈ 2.33 µM) | 1 (≈ 2.33 µM) | 1 (≈ 2.33 µM)
3 | CC(=O)O[C@H]1C[C@H]2[C@]3(C)CC[C@H]4C(C)(C)CCC[C@]4(C)[C@H]3C[C@@H](O)[C@]2(C)[C@H]2OC(=O)C=C12 | 5 (≈ 11.2 µM) | 5 (≈ 11.2 µM) | 5 (≈ 11.2 µM) | 5 (≈ 11.2 µM)
4 | CC(C)[C@@H](C)/C=C/[C@@H](C)[C@H]1CC[C@@H](C2=C[C@@H]3O[C@@]34C[C@@H](O)CC[C@]4(C)C2=O)[C@]1(C)CC=O [3-O-DEACETYLLUFFASTEROL B] | 1 (≈ 2.26 µM) | 1 (≈ 2.26 µM) | 1 (≈ 2.26 µM) | 1 (≈ 2.26 µM)
